The record followed here is patent US20230159527A1, “COMPOUNDS AS BCL-2 INHIBITORS” (Fochon Pharmaceuticals, Ltd., priority 2020, published 2023).

What all share (type): cell-based
One assay has as its system RS4;11 cells. The assay is described as follows: Cell proliferation assay, RS4;11 cells (MTS, 72 h). To be noted: Homo sapiens, RS4;11 cell proliferation. The procedure, abridged: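 RS4;11 cells (30000/well, RPMI-1640 plus 10% FBS) treated with compounds at 1.5-10000 nM for 72 h at 37° C, 5% CO2. Viability by MTS (2 h), absorbance at 490 nm with 650 nm reference; IC50 from proliferation inhibition.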

The next assay has as its system DoHH2 cells. The assay is described as follows: Cell proliferation assay, DoHH2 cells (MTS, 120 h). The settings on record: Homo sapiens, DOHH-2. The gist of the method: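 DoHH2 cells in RPMI-1640 with 10% FBS were plated at 5000/well and rested 4 h. They were then exposed to compound at nine final concentrations (10000 to 1.5 nM) for 120 h at 37 °C. Viability was read by MTS (2 h, A490) and IC50 derived by curve fitting.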

The next assay has as its system Toledo cells. As to the kind of experiment: Cell proliferation assay, Toledo cells (MTS, 72 h). To be noted: Homo sapiens, Toledo cells, MTS, read-out: Toledo IC50. The gist of the method:
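Toledo cells (30000/well, RPMI-1640 with 10% FBS) were preincubated for 4 h. They were then exposed to nine compound concentrations from 10000 to 1.5 nM for 72 h at 37 °C, 5% CO2. MTS was added for 2 h and absorbance read at 490 nm to give IC50.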

As a reminder, the IC50 is the point on the concentration scale where inhibition reaches its midpoint.

Regarding `CC(C)c1ccccc1[C@@H]1COCCN1C1CC2(CCN(c3ccc(C(=O)NS(=O)(=O)c4cnc(NC[C@H]5CC[C@@](C)(O)CC5)c([N+](=O)[O-])c4)c(Oc4cnc5[nH]ccc5c4)c3)CC2)C1` (single isomer, unassigned) [Example A-56a, 2-((1H-pyrrolo[2,3-b]pyridin-5-yl)oxy)-N-((6-((((1s,4s)-4-hydroxy-4-methylcyclohexyl)methyl)amino)-5-nitropyridin-3-yl)sulfonyl)-4-(2-((R or S)-3-(2-isopropylphenyl)morpho-lino)-7-azaspiro[3.5]nonan-7-yl) benzamide], the IC50 is not above 1 nM with RS4;11 cells, not above 1 nM in the assay on DoHH2 cells and 1 nM with Toledo cells.
In the case of `O=C(NS(=O)(=O)c1cnc(NCC2C3COCC23)c([N+](=O)[O-])c1)c1ccc(N2CCC3(CC2)CC(N2CCC4C[C@]42c2ccccc2C2CC2)C3)cc1Oc1cnc2[nH]ccc2c1` (single isomer, unassigned) [Example A-97b, 2-((1H-pyrrolo[2,3-b]pyridin-5-yl)oxy)-N-((6-(((3-oxabicyclo[3.1.0]hexan-6-yl)methyl)amino)-5-nitro-pyridin-3-yl)sulfonyl)-4-(2-((1R or 1S)-1-(2-cyclopropylphenyl)-2-aza-bicyclo[3.1.0]hexan-2-yl)-7-azaspiro [3.5]nonan-7-yl)benzamide], the IC50 in the assay on RS4;11 cells is not above 1 nM; in the assay with DoHH2 cells, not above 1 nM; in the assay with Toledo cells it was 6 nM.
On to `CC(C)c1ccccc1[C@H]1CCCN1C1CC2(CCN(c3ccc(C(=O)NS(=O)(=O)c4cnc(NCC5(F)CCOCC5)c([N+](=O)[O-])c4)c(Oc4cnc5[nH]ccc5c4)c3)CC2)C1` [Example A-31b, (R)-2-((1H-pyrrolo[2,3-b]pyridin-5-yl)oxy)-N-((6-(((4-fluorotetra-hydro-2H-pyran-4-yl)methyl)amino)-5-nitropyridin-3-yl)sulfonyl)-4-(2-(2-(2-isopropylphenyl)pyrrolidin-1-yl)-7-azaspiro[3.5]nonan-7-yl)benzamide], for which the IC50 with RS4;11 cells was not above 1 nM; in the assay on DoHH2 cells it was not above 1 nM; in the assay on Toledo cells, 2 nM.
For `CC(C)c1ccccc1[C@H]1CCCN1C1CC2(CCN(c3ccc(C(=O)NS(=O)(=O)c4cnc(NC[C@H]5CC[C@](C)(O)CC5)c([N+](=O)[O-])c4)c(Oc4cnc5[nH]ccc5c4)c3)CC2)C1` [Example A-7b], the IC50 with RS4;11 cells is not above 1 nM; in the assay on DoHH2 cells, not above 1 nM; with Toledo cells it was 1 nM.
In the case of `CN1CCN(C2CC3(CCN(c4ccc(C(=O)NS(=O)(=O)c5cnc(NCC6CCOCC6)c([N+](=O)[O-])c5)c(Oc5cnc6[nH]ccc6c5)c4)CC3)C2)[C@H](c2ccccc2C2CC2)C1` (single isomer, unassigned) [Example A-39a, (R or S)-2-((1H-pyrrolo[2,3-b]pyridin-5-yl)oxy)-4-(2-(2-(2-cyclopropyl-phenyl)-4-methylpiperazin-1-yl)-7-azaspiro[3.5]nonan-7-yl)-N-((5-nitro-6-(((tetrahydro-2H-pyran-4-yl)methyl)amino)pyridin-3-yl)sulfonyl) benzamide], the IC50 was not above 1 nM in the assay on RS4;11 cells, not above 1 nM in the assay on DoHH2 cells and 1 nM in the assay on Toledo cells.
Take `CC(C)c1ccccc1[C@H]1CCCN1C1CC2(CCN(c3ccc(C(=O)NS(=O)(=O)c4cnc(NCC5CCOCC5)c([N+](=O)[O-])c4)c(Oc4cnc5[nH]ccc5c4)c3)CC2)C1` [Example A-5b, (R)-2-((1H-pyrrolo[2,3-b]pyridin-5-yl)oxy)-4-(2-(2-(2-isopropylphenyl)pyrrolidin-1-yl)-7-azaspiro[3.5]nonan-7-yl)-N-((5-nitro-6-(((tetrahydro-2H-pyran-4-yl)methyl)amino)pyridin-3-yl)sulfonyl) benzamide]: the IC50 in the assay with RS4;11 cells is not above 1 nM; with DoHH2 cells, not above 1 nM; in the assay with Toledo cells it was 1 nM.
In the case of `CC1(O)CCC(CNc2ncc(S(=O)(=O)NC(=O)c3ccc(N4CCC5(CC4)CC(N4CCOC[C@H]4c4ccccc4C4CC4)C5)cc3Oc3cnc4[nH]ccc4c3)cc2[N+](=O)[O-])CC1` (single isomer, unassigned) [Example A-34, (R or S)-2-((1H-pyrrolo[2,3-b]pyridin-5-yl)oxy)-4-(2-(3-(2-cyclopropylphenyl)morpholino)-7-azaspiro[3.5]nonan-7-yl)-N-((6-(((4-hydroxy-4-methylcyclohexyl)methyl)amino)-5-nitropyridin-3-yl)sulfonyl) benzamide], the IC50 is not above 1 nM in the assay with RS4;11 cells, not above 1 nM in the assay with DoHH2 cells and 7 nM with Toledo cells.
With `CC(C)c1ccccc1[C@H]1CCCN1C1CC2(CCN(c3ccc(C(=O)NS(=O)(=O)c4cnc(NC[C@H]5CC[C@@](C)(O)CC5)c([N+](=O)[O-])c4)c(Oc4cnc5[nH]ccc5c4)c3)CC2)C1` [Example A-7a, 2-((1H-pyrrolo[2,3-b]pyridin-5-yl)oxy)-N-((6-((((1s,4s)-4-hydroxy-4-methylcyclohexyl)methyl)amino)-5-nitropyridin-3-yl)sulfonyl)-4-(2-((R)-2-(2-isopropylphenyl)pyrrolidin-1-yl)-7-azaspiro[3.5]nonan-7-yl)benzamide], the IC50 was not above 1 nM with RS4;11 cells, not above 1 nM with DoHH2 cells and 1 nM with Toledo cells.
In the case of `CC(C)c1ccccc1[C@@H]1COCCN1C1CC2(CCN(c3ccc(C(=O)NS(=O)(=O)c4cnc(NC[C@H]5CC[C@](C)(O)CC5)c([N+](=O)[O-])c4)c(Oc4cnc5[nH]ccc5c4)c3)CC2)C1` (single isomer, unassigned) [Example A-56b, 2-((1H-pyrrolo[2,3-b]pyridin-5-yl)oxy)-N-((6-((((1r,4r)-4-hydroxy-4-methylcyclohexyl)methyl)amino)-5-nitropyridin-3-yl)sulfonyl)-4-(2-((R or S)-3-(2-isopropylphenyl)morpho-lino)-7-azaspiro[3.5]nonan-7-yl) benzamide], the IC50 is not above 1 nM in the assay on RS4;11 cells, not above 1 nM in the assay on DoHH2 cells and 1 nM in the assay on Toledo cells.
